Key:
[1] = target: T1, His-tagged BTK kinase domain (Homo sapiens, UniProt Q06187); experiment: Mass spectral analysis of tryptic digest of BTK kinase domain; assay type: binding; conditions: 10 μM BTK KD, 10 μM compound, 45 min; for C481 covalent modification: tryptic peptide 467-487
T1 construct: Intact His-tagged BTK kinase domain (SOURCE)(10 μM) was incubated
Experimental: A protein kinase that is inhibited by compound and/or pharmaceutically acceptable salt of the present disclosure may be subjected to mass spectral analysis to assess the formation of permanent, irreversible covalent adducts. […] Such methods identify permanent, irreversible covalent protein adducts by observing a mass peak that corresponds to the mass of a control sample plus the mass of an irreversible adduct.
After the incubation time, the reactions were quenched by acetone precipitation and the pellet was re-dissolved in 8 M Urea. […] The BTK protein band was then excised and subjected to an in-gel trypsin digest by reducing the protein (5 mM DTT), alkylating the thiols with iodoacetamide (15 mM), and then incubating the protein gel band with trypsin in a 37 C water bath (4 hours). The tryptic digestion was then quenched by the addition of trifluoroacetic acid, and peptides were removed from the gel band by sonicating with increasing amounts of acetonitrile (0%, 30%, & 60%). Peptides were then purified using C18 ziptips, spotted on the MALDI target plate with α-cyano-4-hydroxycinnamic acid as the desorption matrix (10 mg/mL in 0.10% TFA:Acetonitrile 50:50), and analyzed in reflectron mode.

BTK [2] = target: T2, BTK (Homo sapiens, UniProt Q06187); experiment: In vitro BTK inhibition (no preincubation); assay type: biochemical
BTK [3] = target: T2, BTK; experiment: BTK irreversible inhibition, enzyme kinetic analysis; assay type: biochemical; conditions: 0.1 nM BTK, 500 μM ATP
Experimental: One of ordinary skill in the art will recognize that this is consistent with the irreversible inhibition of BTK by compound I-A1.
One of ordinary skill in the art will recognize that this is consistent with the irreversible inhibition of BTK by compound I-A6.
One of ordinary skill in the art will recognize that this is consistent with the irreversible inhibition of BTK by compound 3A-2.
The shift of IC50 to a lower value after pre-incubation of the enzyme indicates to one of ordinary skill in the art that a significant portion of the enzyme was inhibited irreversibly during the incubation period.

MV4-11 cells = experiment: CellTiter-Blue cell viability, MV-4-11; assay type: cell-based; conditions: Homo sapiens, 72 hrs exposure
Method in brief: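 Cells plated at 1×10^4 per well, compound (0.097656-50 μM) added after 24 hrs and exposed 72 hrs at 37° C, 5% CO2. Viability by CellTiter-Blue, 1-4 h incubation, fluorescence at 560/590 nm.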

K562 cells = experiment: CellTiter-Blue cell viability, K562; assay type: cell-based; conditions: Homo sapiens, 72 hrs exposure
Experimental: (§1) Anti-cancer efficacy of exemplary compounds of this application was assessed in vitro in different cancer cell lines. Cell viability was examined following treatment at various concentration of inhibitor (0.097656-50 μM) using a cell Titer-Blue cell viability assay. 1×10^4 cells (NHF, MV4-11, K562 and MOLM-13 cells)/well were plated in 96-well assay plates in culture medium. All cells were grown in DMEM, IMDM and RPMI-1640 supplemented with 10% FBS. After 24 hrs, test compounds and vehicle controls were added to appropriate wells so the final volume was 100 μl in each well. The cells were cultured for the desired test exposure period (72 hrs) at 37° C. and 5% CO2. The assay plates were removed from 37° C. incubator and 20 μl/well of CellTiter-Blue® Reagent was added. The plates were incubated using standard cell culture conditions for 1-4 hours and the plates were shaken for 10 seconds and record fluorescence at 560/590 nm.

tubulin = experiment: Tubulin polymerization assay; assay type: biochemical; conditions: for % Inhibition: Vmax normalized to tubulin only control; for % D.O.P.: degree of polymerization relative to tubulin control
Method in brief: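 Purified tubulin (3 mg/mL in the polymerization mix) in 80 mM PIPES pH 6.9, 2 mM MgCl2, 0.5 mM EGTA, 1 mM GTP, 10.2% glycerol was added to inhibitor at 37 °C. A340 read every 15 s for 30 min; maximal baseline-subtracted change relative to tubulin-only control gave % degree of polymerization.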

MOLM-13 cells = experiment: CellTiter-Blue cell viability, MOLM-13; assay type: cell-based; conditions: Homo sapiens, 72 hrs exposure
Experimental: as §1

BTK [4] = target: T2, BTK; experiment: BTK washout experiment; assay type: biochemical; conditions: 6-h incubation, 50 nM BTK, 177 nM compound, 400-fold dilution; relative to DMSO
Experimental: After a 3-h incubation of 40 nM BTK in the presence of 296 nM of compound I-A1, a 400-fold dilution was performed to remove excess inhibitor.
After a 6-h incubation of 50 nM BTK in the presence of 280 nM of compound 3A-6, a 400-fold dilution was performed to remove excess inhibitor.
By way of contrast, a “washout” experiment performed with ARQ-531 gives a very different result, because this compound lacks a warhead and is known to inhibit BTK reversibly. After a 6-h incubation of 50 nM BTK in the presence of 177 nM of ARQ-531, a 400-fold dilution was performed to remove excess inhibitor. […] This indicates to one of ordinary skill in the art that the enzyme was not inhibited irreversibly during the incubation with ARQ-531.

T2 sequence (Q06187 whole entry, species assumed): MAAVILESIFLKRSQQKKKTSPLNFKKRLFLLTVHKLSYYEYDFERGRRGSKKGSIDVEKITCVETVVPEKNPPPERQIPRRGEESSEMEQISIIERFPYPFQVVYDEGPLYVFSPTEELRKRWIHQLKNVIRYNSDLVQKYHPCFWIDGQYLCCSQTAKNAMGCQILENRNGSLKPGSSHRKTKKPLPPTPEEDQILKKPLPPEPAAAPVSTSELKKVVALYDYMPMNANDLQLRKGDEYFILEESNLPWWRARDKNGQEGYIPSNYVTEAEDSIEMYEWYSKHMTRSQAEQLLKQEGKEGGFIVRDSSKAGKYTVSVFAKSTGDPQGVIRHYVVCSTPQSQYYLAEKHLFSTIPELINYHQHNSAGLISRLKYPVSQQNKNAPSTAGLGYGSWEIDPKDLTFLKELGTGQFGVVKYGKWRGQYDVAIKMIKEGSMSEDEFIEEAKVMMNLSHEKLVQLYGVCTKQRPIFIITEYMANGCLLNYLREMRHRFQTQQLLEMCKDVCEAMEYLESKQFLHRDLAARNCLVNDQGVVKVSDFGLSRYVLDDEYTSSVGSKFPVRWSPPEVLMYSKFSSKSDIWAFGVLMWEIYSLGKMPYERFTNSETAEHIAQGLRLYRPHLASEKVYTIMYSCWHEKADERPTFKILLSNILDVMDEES
T1 sequence (Q06187 402-655 limits assumed): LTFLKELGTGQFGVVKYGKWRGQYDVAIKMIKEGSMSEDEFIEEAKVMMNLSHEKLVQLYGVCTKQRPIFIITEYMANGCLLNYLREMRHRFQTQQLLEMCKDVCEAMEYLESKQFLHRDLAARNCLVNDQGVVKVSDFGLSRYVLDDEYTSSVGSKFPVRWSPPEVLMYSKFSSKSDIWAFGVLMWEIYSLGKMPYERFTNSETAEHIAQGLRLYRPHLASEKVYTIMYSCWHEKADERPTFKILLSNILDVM

| IC50 (MV4-11 cells) [nM] | IC50 (K562 cells) [nM] | IC50 (MOLM-13 cells) [nM] | Structure (SMILES) | % Inhibition (tubulin) | % D.O.P. (tubulin) | further results |
| --- | --- | --- | --- | --- | --- | --- |
| – | – | – | COCCOc1ccc(Nc2ncc(F)c(NCCNS(=O)(=O)c3c(F)c(F)c(F)c(F)c3F)n2)cc1 [Compound 3A-37, 2,3,4,5,6-pentafluoro-N-(2-((5-fluoro-2-((4-(2-methoxyethoxy)phenyl)amino)pyrimidin-4-yl)amino)ethyl)benzenesulfonamide] | – | – | C481 covalent modification [1]: covalent modification and ✓ |
| – | – | – | Nc1ncnc2c1c(-c1ccc(Oc3ccccc3)cc1)nn2C1CN(S(=O)(=O)c2c(F)c(F)c(F)c(F)c2F)C1 [Compound 3A-24, 1-(1-((perfluorophenyl)sulfonyl)azetidin-3-yl)-3-(4-phenoxyphenyl)-1H-pyrazolo[3,4-d]pyrimidin-4-amine] | – | – | IC50 (BTK [2]; Table 17): 0.1 to 10 nM |
| – | – | – | Nc1ncnc2c1c(-c1ccc(Oc3ccccc3)cc1)nn2CCCNS(=O)(=O)c1c(F)c(F)c(F)c(F)c1F [Compound 3A-10, N-(3-(4-amino-3-(4-phenoxyphenyl)-1H-pyrazolo[3,4-d]pyrimidin-1-yl)propyl)-2,3,4,5,6-pentafluorobenzenesulfonamide] | – | – | IC50 (BTK [2]; Table 17): 0.1 to 10 nM |
| – | – | – | Nc1ncnc2c1c(-c1ccc(Oc3ccccc3)cc1)nn2[C@@H]1CCCN(S(=O)(=O)c2c(F)c(F)c(F)c(F)c2OCC(F)(F)F)C1 [Compound 3A-2, (R)-3-(4-phenoxyphenyl)-1-(1-((2,3,4,5-tetrafluoro-6-(2,2,2 trifluoroethoxy)phenyl)sulfonyl)piperidin-3-yl)-1H-pyrazolo[3,4-d]pyrimidin-4-amine] | – | – | inhibition profile by enzyme kinetic analysis (BTK [3]): time-dependent inhibition; kinact (BTK [3]; saturation kinetics): 0.00169 s⁻¹; Ki (BTK [3]; saturation kinetics of irreversible inhibition): 120 nM; IC50 (BTK [2]; Table 17): 100 to 1000 nM |
| 1000 to 10000 | > 10000 | 1000 to 10000 | COc1ccc(Oc2c(F)c(F)c(F)c(F)c2S(=O)(=O)Nc2ccc(OC)c(F)c2)cc1 [Compound I-79, 2,3,4,5-tetrafluoro-N-(3-fluoro-4-methoxyphenyl)-6-(4-methoxyphenoxy)benzenesulfonamide] | A (<10%) | A (>85%) | – |
| > 10000 | > 10000 | > 10000 | COc1ccc(NS(=O)(=O)c2c(F)c(F)c(F)c(F)c2OCC(C)(C)C)cc1F [Compound I-74, 2,3,4,5-tetrafluoro-N-(3-fluoro-4-methoxyphenyl)-6-(neopentyloxy)benzenesulfonamide] | A (<10%) | A (>85%) | – |
| 1000 to 10000 | > 10000 | 1000 to 10000 | COc1ccc(NS(=O)(=O)c2c(F)c(F)c(F)c(F)c2C(=O)C(F)(F)F)cc1F [Compound I-90, 2,3,4,5-tetrafluoro-N-(3-fluoro-4-methoxyphenyl)-6-(2,2,2-trifluoroacetyl)benzenesulfonamide] | A (<10%) | A (>85%) | – |
| – | – | – | O=C(c1ccc(Oc2ccccc2)cc1Cl)c1c[nH]c2ncnc(N[C@@H]3CC[C@@H](CO)OC3)c12 [ARQ-531, reference compound] | – | – | residual activity of the enzyme (BTK [4]): recovered all of its activity |
| – | – | – | Nc1ncnc2c1c(-c1ccc(Oc3ccccc3)cc1)nn2[C@@H]1CCN(S(=O)(=O)c2cc(F)c(F)c(F)c2F)C1 [Compound 3A-4, 3-(4-phenoxyphenyl)-1-[(3R)-1-(2,3,4,5-tetrafluorophenyl)sulfonylpyrrolidin-3-yl]pyrazolo[3,4-d]pyrimidin-4-amine] | – | – | C481 covalent modification [1]: covalent modification and ✓ |
| – | – | – | COCCOc1ccc(Nc2ncc(F)c(Nc3ccc(NS(=O)(=O)c4c(F)c(F)c(F)c(F)c4F)cc3)n2)cc1 [Compound 3A-38, 2,3,4,5,6-pentafluoro-N-(4-((5-fluoro-2-((4-(2-methoxyethoxy)phenyl)amino)pyrimidin-4-yl)amino)phenyl)benzenesulfonamide] | – | – | C481 covalent modification [1]: covalent modification and ✓ |
| ≤ 100 | ≤ 100 | ≤ 100 | COc1ccc(NS(=O)(=O)c2c(F)c(F)c(F)c(F)c2OCF)cc1F [Compound I-83, 2,3,4,5-tetrafluoro-N-(3-fluoro-4-methoxyphenyl)-6-(fluoromethoxy)benzenesulfonamide] | C (>20%) | B (< 85%) | – |
| 1000 to 10000 | 1000 to 10000 | > 10000 | COc1ccc(NS(=O)(=O)c2c(F)c(F)c(F)c(F)c2OCC2CC2)cc1F [Compound I-71, 2-(cyclopropylmethoxy)-3,4,5,6-tetrafluoro-N-(3-fluoro-4-methoxyphenyl)benzenesulfonamide] | A (<10%) | A (>85%) | – |
| ≤ 100 | ≤ 100 | 100 to 1000 | COc1ccc(NS(=O)(=O)c2cc(F)c(F)c(F)c2F)cc1F [Compound I-93, 2,3,4,5-tetrafluoro-N-(3-fluoro-4-methoxyphenyl)benzenesulfonamide] | C (>20%) | B (< 85%) | – |
| – | – | – | Nc1ncnc2c1c(-c1ccc(Oc3ccccc3)cc1)nn2CCNS(=O)(=O)c1c(F)c(F)c(F)c(F)c1F [Compound 3A-9, N-[2-[4-amino-3-(4-phenoxyphenyl)pyrazolo[3,4-d]pyrimidin-1-yl]ethyl]-2,3,4,5,6-pentafluoro-benzenesulfonamide] | – | – | C481 covalent modification [1]: covalent modification and ✓; C527 covalent modification ([1]; tryptic peptide 526-536): covalent modification and ✓; IC50 (BTK [2]; Table 18): 0.1 to 10 nM |
| 1000 to 10000 | > 10000 | > 10000 | COc1ccc(NS(=O)(=O)c2c(F)c(F)c(F)c(F)c2Oc2ccc(O)cc2)cc1F [Compound I-77, 2,3,4,5-tetrafluoro-N-(3-fluoro-4-methoxyphenyl)-6-(4-hydroxyphenoxy)benzenesulfonamide] | A (<10%) | A (>85%) | – |
| 1000 to 10000 | > 10000 | 1000 to 10000 | CN(C)S(=O)(=O)c1c(F)c(F)c(F)c(F)c1F [Compound I-1, 2,3,4,5,6-pentafluoro-N,N-dimethylbenzenesulfonamide] | A (<10%) | A (>85%) | – |
| 100 to 1000 | 1000 to 10000 | 1000 to 10000 | COc1ccc(NS(=O)(=O)c2c(F)c(F)c(F)c(F)c2OCC2COC2)cc1F [Compound I-73, 2,3,4,5-tetrafluoro-N-(3-fluoro-4-methoxyphenyl)-6-(oxetan-3-ylmethoxy)benzenesulfonamide] | A (<10%) | A (>85%) | – |
| 100 to 1000 | 100 to 1000 | 100 to 1000 | COc1ccc(NS(=O)(=O)c2c(F)c(F)c(F)c(F)c2OCC(F)F)cc1F [Compound I-67, 2-(2,2-difluoroethoxy)-3,4,5,6-tetrafluoro-N-(3-fluoro-4-methoxyphenyl)benzenesulfonamide] | C (>20%) | B (< 85%) | – |
